Test results taken from patent US10098352B2, “Honeybee repellents and uses thereof” (Inscent, Inc., priority 2011, dated 2018).

Legend:
OBP2 = test: Fluorescent-quench ligand-protein-binding assay (OBP2 binding screen); set-up: species or system Apis mellifera; key: Low, indicates no detectable binding to OBP2.; Moderate, indicates that 50% or less of the compound bound to OBP2.; Strong, indicates that 51% or more of the compound bound to OBP2
From the text: To identify a honeybee repellent disclosed herein, candidate compounds were screened based upon the fact that 2-heptanone is an established repellent of bees. 2-heptanone is thought to mediate its behavioral response through binding to a specific odorant-binding protein called OBP2. Therefore compounds that bind OBP2 have the potential to act as odor “mimics” of 2-heptanone. By utilizing a fluorescent-quench, ligand-protein-binding assay, 30,000 compounds from the DIVERSET® library (ChemBridge Corp., San Diego, Calif.), a chemical library, were screened and over 150 candidate compounds were isolated that bind OBP2 (Table 1). Such assays are generally known in the art. See, e.g., Briand, et al., Ligand-Binding Properties and Structural Characterization of a Novel Rat Odorant-Binding Protein Variant, Eur. J. Biochem. 267(10): 3079-3089 (2000); Briand, et al., Ligand Binding and Physico-Chemical Properties of ASP2, A Recombinant Odorant-Binding Protein From Honeybee (Apis mellifera L.), Eur. J. Biochem. 268(3): 752-760 (2001); Briand, et al., Characterization of a Chemosensory Protein (ASP3c) from Honeybee (Apis mellifera L.) as a Brood Pheromone Carrier, Eur. J. Biochem. 269(18): 4586-4596 (2002), each of which is hereby incorporated by reference in its entirety.

[1] = tested on: Apis mellifera Carniolan foraging worker honeybees; test: Proboscis extension response (PER) assay in bees conditioned to 2-heptanone; type: in vivo; details: for 2-heptanone positive bees testing positive to compound: final compound concentration 0.5% (TRITON X-100/water), 4 s exposure, only bees PER-positive to 2-heptanone and negative to controls counted
Protocol: To determine whether a living honeybee can recognize a candidate compound, these compounds were tested using a proboscis extension response (PER) assay using classical conditioning approaches. Proboscis extension response conditioning is a case of appetitive learning, in which bees learn to associate odor stimuli with sucrose reward in the laboratory. In this case, bees were conditioned to produce a PER to 2-heptanone as the conditioned stimulus and a sugar reward as the unconditioned stimulus. These trained bees were then exposed to an odor pulse of a candidate compound to test whether a candidate compound would also produce a PER. If the candidate compound “mimics” 2-heptanone then the honeybee will extend its proboscis.
For conditioning procedures, Apis mellifera Carniolan foraging worker honeybees were obtained from a local apiary (typically 60 bees per shipment). The honeybees were held overnight in insect cages with food and water freely available, in an environmentally controlled room on a light cycle similar to the ambient cycle at the time of the assay.
For conditioning procedures, all tests were done in an odorant delivery apparatus set inside a fume hood. The apparatus comprised a set of open-ended, horizontal, 3 cm diameter by 10 cm long plastic tubes. Each tube was designed where a honeybee could be positioned at the distal end of a tube, with the opening at the other end of the tube located proximal to an inlet of the fume hood. To deliver an odorant, room air was pumped by a diaphragm pump through a particle filter via 0.25 inch plastic tubing at approximately 0.7 m/sec. The air flow passes into the headspace above an odorant (0.5% [v/v]2-heptanone dissolved in odorless light paraffin oil) contained in a 100 mL bottle. The headspace air then passes through another plastic tube to a manifold of 4-way valves, each of which was attached near the proximal end of a plastic tube containing a bee. Each bee was exposed separately for a desired time period to the odorant by opening and closing the appropriate valve. When each valve was closed, the odor was flushed away immediately by the continuous fume hood air stream.
To train a honeybee to respond to a conditioned and unconditioned stimuli, bees were placed, without anesthesia, in individual 1.5 mL micro-centrifuge holding tubes and held overnight without access to food or water. The holding tubes containing the starved bees were placed in racks in groups of eight. One rack at a time was placed behind the odorant delivery apparatus so that each bee's head is centered at the distal end of a horizontal plastic tube. Each bee was exposed to the 2-heptanone odorant alone for four seconds, and then while being fed an 80% sucrose solution for and additional three seconds. The sucrose solution was delivered on a piece of saturated filter paper held in forceps. […] Positive and negative responses were recorded. A positive PER was scored when a bee extended its proboscis before the sucrose appeared. In a typical trial, 48 individual bees were subjected to conditioning. Six rounds of training were done before testing began, and typically a majority of the bees were successfully conditioned by the second or third round of training.
After conditioning, honeybees were tested with the candidate compounds the same day or on the following day or, most commonly, both. When held overnight, bees were fed with sucrose and kept in their holding tubes. When tested the day after training, bees were given one or more rounds of conditioning with 2-heptatone to refresh their memories. Candidate compounds stocks were made at 5% (w/v) in polyoxyethylene octyl phenyl ether (TRITON® X-100), a non-ionic detergent/surfactant, and stored at 4° C. This detergent is similar to substances used as carriers for a variety of commercial pest-control agents, can act as a solvent for both hydrophilic and hydrophobic substances, and is itself nearly odorless. […]

[2] = tested on: Apis mellifera Carniolan foraging worker honeybees; test: Choice test in free-flight box apparatus; type: in vivo; details: for Repellence Score: percent food-weight change vs corresponding dishes in preceding test
Protocol: To determine whether living honeybees will choice to move towards a source of a candidate compound, these compounds were assayed using a choice test in a free-flight box apparatus.
All tests were done in a free-flight box apparatus. The apparatus comprises a 244 cm long×46 cm deep×30 cm high clear plastic box including two equally-sized independent testing chambers, each with 10 cm diameter air inlets that admit filtered room air, separated by a smaller central chamber with a screened air outlet to each testing chamber. Air can be pulled through the sealed box via a 10 cm diameter duct from the air outlet using an AQE Fume Fighter 500 fume extractor (BPA Air Quality Solutions, LLC, Charleston, S.C.), which removes the test odors using activated charcoal and HEPA filters. The box is housed in an environmentally controlled room with overhead illumination timed to correspond to the current ambient light cycle including 2 additional sets of lights timed to approximate crepuscular lighting conditions. The bottom of the apparatus was lined with clean absorbent paper marked with a 4×9 grid pattern, forming 12 cm×12 cm squares with marked coordinates.
Apis mellifera Carniolan foraging worker honeybees were obtained from a local apiary (typically 60 bees per shipment). Thirty honeybees were put into each testing chamber and were allowed to acclimate for 24 hours with food and water freely available.
At the beginning of each test day all food was removed from the test chamber, but water was continually available throughout all tests. For each test, approximately 0.3 g of organic, raw orange blossom honey was added to each clean small plastic weigh boat (Cole-Palmer). The honey boats were placed in small plastic culture dishes, which were distributed in the marked squares in the chambers. The positions of the dishes on the grid for a set of trials was chosen to avoid the bees' preferred resting area so that they had to find the food actively, but the same dish positions were maintained for a given set of trials. […] The honey in each boat was weighed on an analytical balance before and after the test, with the screened sample as a control for evaporative loss. The fume extractor was left off during the experimental trails, and was turned on to clear the air after the test dishes were covered and removed from the chamber at the end of each trial.
Based on the observation that bees tend to return to dishes in the same position where they have fed before, each set of trials with each group of bees began with “Pattern Identification” tests to see which dishes lose the most weight, reflecting the most feeding. Once bees were consuming an acceptable amount in 10-15 min, typically in 1-2 trials, we began a set of test compound trials. The test compound was pipetted onto pieces of filter paper placed on the dish bottom below the boat containing a fresh, weighed honey sample so that the test compound was inaccessible to the bees. We used 2 μL of a candidate compound at a concentration of 0.05-0.5%, in Triton X-100 or paraffin oil, on each of four pieces of filter paper per dish. The test-solution dishes were set at the same positions as the one or two dishes favored in the preceding Pattern Identification trial. To eliminate interference from the solvent, the other dishes without the test substance contained the same volume of the appropriate solvent on filter papers as the test solution dishes. The bees were allowed to feed for 10-15 minutes. Bee movements were recorded by a small, wide-angle digital video camcorder (HD Hero 960; GoPro, Halfmoon Bay, Calif.) placed on a tripod in front of the test chamber. The bees were given a brief rest while the honey was weighed and a second test was begun with fresh dishes, except that the test compound-containing dish or dishes were placed at whichever positions were most visited in the preceding test. […] The bees were then rested for 1-3 hours and a subsequent set of trials begun with another Pattern Identification. […]

[3] = amount 0.5%, negative = increase in food consumption

## COc1ccc(C(=O)C=Cc2c(C)[nH]c3ccccc23)cc1 [compound 1, 1-(4-methoxyphenyl)-3-(2-methyl-1H-indol-3-yl)-2-propen-1-one]
OBP2
  OBP2 binding characteristic of compound: Moderate (Moderate, indicates that 50% or less of the compound bound to OBP2.)
[1]
  2-heptanone positive bees testing positive to compound: 26.6%
[2]; [3]
  Repellence Score: 57.8%

## CC(=O)c1cc(Cl)ccc1OC(=O)c1ccc(C)cc1 [compound 40, 2-acetyl-4-chlorophenyl 4-methylbenzoate]
OBP2
  OBP2 binding characteristic of compound: Moderate (Moderate, indicates that 50% or less of the compound bound to OBP2.)
[1]; PER score as repeated in Table 3
  % Positive in PER: 30.5%
[1]
  2-heptanone positive bees testing positive to compound: 34.3%
[2]; [3]
  Repellence Score: 54.6%

## COc1ccc(CN2CCN(Cc3ccccc3)CC2)c(C)c1C [compound 7, 1-benzyl-4-(4-methoxy-2,3-dimethylbenzyl)piperazine]
OBP2
  OBP2 binding characteristic of compound: Moderate (Moderate, indicates that 50% or less of the compound bound to OBP2.)
[1]
  2-heptanone positive bees testing positive to compound: 39.0%
[2]; amount 0.1%
  Repellence Score: 62.0%

## O=C(Nc1ccccc1C(=O)Nc1ccccc1Cl)c1ccccc1 [compound 10, 2-(benzoylamino)-N-(2-chlorophenyl)benzamide]
OBP2
  OBP2 binding characteristic of compound: Moderate (Moderate, indicates that 50% or less of the compound bound to OBP2.)
[1]
  2-heptanone positive bees testing positive to compound: 4.8%
[2]; [3]
  Repellence Score: 45.6%

## O=[N+]([O-])c1cc2c(cc1CN1CCN(c3ccccc3)CC1)OCO2 [compound 26]
[1]
  2-heptanone positive bees testing positive to compound: 14.8%
[2]; 0.05% compared with 0.5%
  Effectiveness at 10-fold lower concentration: significantly more effective
[2]; amount 0.05%
  Repellence Score: 60.0%
[2]; [3]
  Repellence Score: 58.6%

## COc1ccc(C(=O)C=Cc2cn(C)c3ccccc23)cc1 [compound 50, 1-(4-methoxyphenyl)-3-(1-methyl-1H-indol-3-yl)-2-propen-1-one]
[1]
  2-heptanone positive bees testing positive to compound: 22.2%
[2]; [3]
  Repellence Score: 55.7%

## CC(C)(C)C1=CC(=NNC(N)=S)C=C(C(C)(C)C)C1=O [compound 42]
OBP2
  OBP2 binding characteristic of compound: Moderate (Moderate, indicates that 50% or less of the compound bound to OBP2.)
[1]
  2-heptanone positive bees testing positive to compound: 2.6%

## COc1ccc(CN2CCOCC2)c(C)c1C [compound 33]
OBP2
  OBP2 binding characteristic of compound: Low*
[1]
  2-heptanone positive bees testing positive to compound: 8.5%

## CCCCn1c(=O)c(C(=O)NCc2ccccn2)c(O)c2ccccc21 [compound 16]
OBP2
  OBP2 binding characteristic of compound: Strong (Strong, indicates that 51% or more of the compound bound to OBP2.)
[1]
  2-heptanone positive bees testing positive to compound: 6.2%

## O=C(COC(=O)c1ccccc1)c1cccc(Br)c1 [compound 54]
OBP2
  OBP2 binding characteristic of compound: Moderate (Moderate, indicates that 50% or less of the compound bound to OBP2.)
[1]
  2-heptanone positive bees testing positive to compound: 9.1%

## Cc1cc(O)c(C2=Nc3ccccc3SC(c3ccc(O)cc3)C2)c(=O)o1 (centres unmarked) [compound 35]
OBP2
  OBP2 binding characteristic of compound: Moderate (Moderate, indicates that 50% or less of the compound bound to OBP2.)
[1]
  2-heptanone positive bees testing positive to compound: 9.0%

## O=C(C=Cc1ccccc1)OCC1CCCN(Cc2cccc([N+](=O)[O-])c2)C1 (centres unmarked) [compound 23]
OBP2
  OBP2 binding characteristic of compound: Strong (Strong, indicates that 51% or more of the compound bound to OBP2.)
[1]
  2-heptanone positive bees testing positive to compound: 3.3%

## COC(=O)C=C(C)NC(=O)c1ccc(F)cc1 [compound 59]
OBP2
  OBP2 binding characteristic of compound: Moderate (Moderate, indicates that 50% or less of the compound bound to OBP2.)
[1]
  2-heptanone positive bees testing positive to compound: 16.7%

## COc1cc(C=NO)ccc1Oc1ccc([N+](=O)[O-])cc1 [compound 3, 3-methoxy-4-(4-nitrophenoxy)benzaldehyde oxime]
[1]
  2-heptanone positive bees testing positive to compound: 14.5%
[2]; [3]
  Repellence Score: 49.8%

## CC1=CC(C)(C)N(C(=O)c2ccc(Br)cc2)c2ccccc21 [compound 11]
OBP2
  OBP2 binding characteristic of compound: Moderate (Moderate, indicates that 50% or less of the compound bound to OBP2.)
[1]
  2-heptanone positive bees testing positive to compound: 4.8%

## CC(C)Nc1c(Cl)c(Cl)c(Cl)c2c1C(=O)c1ccccc1C2=O [compound 22]
OBP2
  OBP2 binding characteristic of compound: Strong (Strong, indicates that 51% or more of the compound bound to OBP2.)
[1]
  2-heptanone positive bees testing positive to compound: 4.4%

## COc1ccc(CN2CCN(C)CC2)c(C)c1C [compound 25]
OBP2
  OBP2 binding characteristic of compound: Low*
[1]
  2-heptanone positive bees testing positive to compound: 6.6%
